# How the values were obtained:
# [1] = Unbound plasma concentration-time profile of the inhibitors in rats; type: in vivo, rat
# [2] = system: OATP1B1; conditions: read-out: Ki for the uptake transporters (OATP1B1); cited from earlier work
# [3] = system: P-gp; conditions: read-out: inhibitory concentration (Ki) for P-gp; cited from earlier work
"maximum unbound concentration in plasma ([1]; rifampicin 30 mg/kg oral, rat)","time unbound plasma level maintained above Ki (Iu/Ki > 1) ([1]; elacridar 5 mg/kg iv, rat plasma, Ki for P-gp)","unbound peak plasma concentration relative to Ki for P-gp ([1]; elacridar 5 mg/kg iv, rat plasma, peak concentration)",Structure (SMILES),Ki [2],Ki [3]
1.8 µM,–,–,CO[C@H]1/C=C/O[C@@]2(C)Oc3c(C)c(O)c4c(O)c(c(/C=N/N5CCN(C)CC5)c(O)c4c3C2=O)NC(=O)/C(C)=C\C=C\[C@H](C)[C@H](O)[C@@H](C)[C@@H](O)[C@@H](C)[C@H](OC(C)=O)[C@@H]1C [rifampicin],1100 nM,–
–,~ 15 hours,[…],COc1cc2c(cc1OC)CN(CCc1ccc(NC(=O)c3cccc4c(=O)c5cccc(OC)c5[nH]c34)cc1)CC2 [elacridar],–,[…]

# Source: paper PMC5392048 (Journal of Central Nervous System Disease, 2017)
